Reference: patent US20130303509A1, “NAMPT INHIBITORS” (AbbVie Inc., priority 2012, published 2013)

Each compound was assayed on PC3 cells (assay: NAMPT Cell Proliferation Assay). Settings: Homo sapiens, PC-3, 120 h, 5 days incubation, cell viability by Cell Titer Glo.
Type: cell-based
Outline: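 Five-day CellTiter-Glo viability readout in PC3 cells grown in RPMI/10% heat-inactivated FBS. Compounds added after overnight attachment as a 10-fold dilution series, […]. Percent inhibition fitted to sigmoidal dose-response to derive IC50.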

First: Cc1ccc(OCC(=O)N2CCC(c3ccc(NC(=O)C4CN(c5cccnn5)C4)cc3)CC2)cc1 [Example 398, N-(4-{1-[(4-methylphenoxy)acetyl]piperidin-4-yl}phenyl)-1-(pyridazin-3-yl)azetidine-3-carboxamide]
Second: O=C(Nc1ccc(C2CCN(C(=O)Cc3ccc(F)cc3)CC2)cc1)[C@H]1CCN(c2cccnn2)C1 [Example 675, (3S)-N-(4-{1-[(4-fluorophenyl)acetyl]piperidin-4-yl}phenyl)-1-(pyridazin-3-yl)pyrrolidine-3-carboxamide]
The IC50 of the first is 8.5-fold lower: 8.19 nM for the first, 69.3 nM for the second.

Compared with `O=C(Nc1ccc(C2CCN(C(=O)C3CCCC3)CC2)cc1)[C@H]1CCN(c2cccnn2)C1` [Example 660, (3S)-N-{4-[1-(cyclopentylcarbonyl)piperidin-4-yl]phenyl}-1-(pyridazin-3-yl)pyrrolidine-3-carboxamide], `O=C(Nc1ccc(C2CCN(C(=O)C3CCCCC3)CC2)cc1)C1CN(c2cccnn2)C1` [Example 339, N-{4-[1-(cyclohexylcarbonyl)piperidin-4-yl]phenyl}-1-(pyridazin-3-yl)azetidine-3-carboxamide] is 2.9-fold lower in IC50: 5.23 nM for the first, 1.83 nM for the second. The second is the more potent here.

First: Cc1ncccc1N1CC(C(=O)Nc2ccc(C3CCN(C(=O)c4cc(Cl)cc(Cl)c4)CC3)cc2)C1 [Example 154, N-{4-[1-(3,5-dichlorobenzoyl)piperidin-4-yl]phenyl}-1-(2-methylpyridin-3-yl)azetidine-3-carboxamide]
Second: O=C(Nc1ccc(C2CCN(C(=O)c3cc(F)cc(F)c3)CC2)cc1)C1CN(c2ccnnc2)C1 [Example 552, N-{4-[1-(3,5-difluorobenzoyl)piperidin-4-yl]phenyl}-1-(pyridazin-4-yl)azetidine-3-carboxamide]
The IC50 of the first is 240-fold higher: 803 nM for the first, 3.32 nM for the second.

First: CC1(C(=O)N2CCC(c3ccc(NC(=O)[C@H]4CCN(c5cccnn5)C4)cc3)CC2)CCCCC1 [Example 654, (3S)-N-(4-{1-[(1-methylcyclohexyl)carbonyl]piperidin-4-yl}phenyl)-1-(pyridazin-3-yl)pyrrolidine-3-carboxamide]
Second: O=C(Nc1ccc(C2CCN(C(=O)CC3CCOCC3)CC2)cc1)C1CN(c2ccnnc2)C1 [Example 145, 1-(pyridazin-4-yl)-N-{4-[1-(tetrahydro-2H-pyran-4-ylacetyl)piperidin-4-yl]phenyl}azetidine-3-carboxamide]
The IC50 of the first is 26-fold lower: 2.76 nM for the first, 70.9 nM for the second. The first is the more potent here.

Going from `O=C(Nc1ccc(O[C@@H]2CCN(C(=O)c3ccsc3)C2)cc1)C1CN(c2ccnnc2)C1` [Example 448, 1-(pyridazin-4-yl)-N-(4-{[(3R)-1-(thiophen-3-ylcarbonyl)pyrrolidin-3-yl]oxy}phenyl)azetidine-3-carboxamide] to `O=C(Nc1ccc(O[C@@H]2CCN(C(=O)c3cscn3)C2)cc1)C1CN(c2ccnnc2)C1` [Example 456, 1-(pyridazin-4-yl)-N-(4-{[(3R)-1-(1,3-thiazol-4-ylcarbonyl)pyrrolidin-3-yl]oxy}phenyl)azetidine-3-carboxamide], the IC50 rises from 9.32 nM to 39.5 nM (4.2-fold).

Going from `O=C(Nc1ccc(OC2CCN(C(=O)CC3CCOCC3)CC2)cc1)C1CN(c2cnccc2C(F)(F)F)C1` [Example 7, N-(4-{[1-(tetrahydro-2H-pyran-4-ylacetyl)piperidin-4-yl]oxy}phenyl)-1-[4-(trifluoromethyl)pyridin-3-yl]azetidine-3-carboxamide] to `O=C(Nc1ccc(C2CCN(C(=O)c3cc(C(F)(F)F)ccc3Cl)CC2)cc1)C1CN(c2cccnn2)C1` [Example 395, N-(4-{1-[2-chloro-5-(trifluoromethyl)benzoyl]piperidin-4-yl}phenyl)-1-(pyridazin-3-yl)azetidine-3-carboxamide], the IC50 falls from 876 nM to 2.14 nM (410-fold).

Work on `CC(C)Cn1cc(-c2cc(C(=O)N[C@H]3CCN(c4ccc(Cl)nn4)C3)cs2)cn1` [Example 629, N-[(3S)-1-(6-chloropyridazin-3-yl)pyrrolidin-3-yl]-5-[1-(2-methylpropyl)-1H-pyrazol-4-yl]thiophene-3-carboxamide] yielded an IC50 of 5010 nM.
